The structures appear in SMILES notation.

The first experiment concerns HIV-IIIb. The experiment in a line: Antiviral assay in MT-2 cells infected with HIV-IIIb. It is filed as cell-based. Particulars: Human immunodeficiency virus 1, IIIB, MT2, 120 h, MT-2 cells infected with HIV-IIIb, m.o.i. 0.01, 10% FBS, 5 days at 37° C., CellTiter-Glo chemiluminescence; read-out: EC50 in MT-2 cells.
The term EC50 denotes the concentration needed to bring the measured effect to its halfway point. With `CNC(=O)c1c(O)c2ncc(Cc3ccc(F)cc3)c3c2n(c1=O)C[C@@H](C(=O)NCC(C)(C)C#N)O3` [Example 175], the concentration giving a half-maximal response (EC50) stood at 2.4 nM.

`CNC(=O)[C@@H]1Cn2c(=O)c(C(=O)NCCO)c(O)c3ncc(Cc4ccc(F)cc4)c(c32)O1` [Example 176]: the EC50 worked out at 23.2 nM.

As for `CNC(=O)c1c(O)c2ncc(Cc3ccc(F)c(Cl)c3)c3c2n(c1=O)C[C@@H](C(=O)NC)O3` [Example 177], the EC50 was 1.2 nM.

Regarding `CNC(=O)c1c(O)c2ncc(Cc3ccc(F)cc3)c3c2n(c1=O)C[C@@H](CC#N)O3` [Example 181], the EC50 came to 1.2 nM.

For the compound `CNC(=O)c1c(O)c2ncc(Cc3ccc(F)cc3)c3c2n(c1=O)C[C@@H](Cn1ccnc1)O3` [Example 183], the EC50 amounted to 1.8 nM.

`CNC[C@H]1Cn2c(=O)c(C(=O)NC)c(O)c3ncc(Cc4ccc(F)cc4)c(c32)O1` [Example 197]: the EC50 was determined as 32 nM.

For `CNC(=O)c1c(O)c2ncc(Cc3ccc(F)cc3)c3c2n(c1=O)C[C@H](CC#N)O3` [Example 198], the EC50 amounted to 3 nM.

For `CNC(=O)C(=O)NC[C@@H]1Cn2c(=O)c(C(=O)NC)c(O)c3ncc(Cc4ccc(F)cc4)c(c32)O1` [Example 199], the EC50 came to 6.7 nM.

`CNC(=O)c1c(O)c2ncc(Cc3ccc(F)cc3)c3c2n(c1=O)C[C@@H](CNC(C)=O)O3` [Example 200]: the EC50 stood at 1.1 nM.

On to `CNC(=O)c1c(O)c2ncc(Cc3ccc(F)cc3)c3c2n(c1=O)C[C@@H](CN(C)C(C)(C)C)O3` [Example 201], for which the EC50 was 2.8 nM.

With `CNC(=O)c1c(O)c2ncc(Cc3ccc(F)cc3)c3c2n(c1=O)C[C@@H](CN(C)CCO)O3` [Example 202], the EC50 came to 12 nM.

Consider `CNC(=O)c1c(O)c2ncc(Cc3ccc(F)cc3)c3c2n(c1=O)C[C@@H](Cn1ccnc1C)O3` [Example 203], for which the EC50 was determined as 12 nM.

Regarding `CNC(=O)c1c(O)c2ncc(Cc3ccc(F)cc3)c3c2n(c1=O)C[C@@H](Cn1ccnc1C(=O)NC)O3` [Example 205], the EC50 amounted to 1 nM.

Regarding `CNC(=O)c1c(O)c2ncc(Cc3ccc(F)cc3)c3c2n(c1=O)C[C@@H](CN(C)S(C)(=O)=O)O3` [Example 206], the concentration for a half-maximal effect (EC50) stood at 0.1 nM.

As to `CNC(=O)c1c(O)c2ncc(Cc3ccc(F)cc3)c3c2n(c1=O)C[C@@H](CN(C)C(=O)c1nnc(C)o1)O3` [Example 207], the EC50 was 4.6 nM.

In the case of `CNC(=O)c1c(O)c2ncc(Cc3ccc(F)cc3)c3c2n(c1=O)C[C@H](CN(C)S(C)(=O)=O)O3` [Example 208], the EC50 amounted to 0.6 nM.

For the compound `CNC(=O)c1c(O)c2ncc(Cc3ccc(F)cc3)c3c2n(c1=O)C[C@H](CN(C)C(C)=O)O3` [Example 209], the EC50 stood at 5.1 nM.

With `O=C(NCCO)c1c(O)c2ncc(Cc3ccc(F)cc3)c3c2n(c1=O)CCO3` [compound 12], the concentration for a half-maximal effect (EC50) amounted to 3.2 nM.

In the case of `O=C(NCCN1CCOCC1)c1c(O)c2ncc(Cc3ccc(F)cc3)c3c2n(c1=O)CCO3` [compound 13], the EC50 is 7 nM.

For `O=C(NCCN1CCNC1=O)c1c(O)c2ncc(Cc3ccc(F)cc3)c3c2n(c1=O)CCO3` [compound 14], the EC50 worked out at 5.5 nM.

With `O=C(NCCN(CCO)CCO)c1c(O)c2ncc(Cc3ccc(F)cc3)c3c2n(c1=O)CCO3` [compound 15], the EC50 is 13 nM.

For `CC(C)N1CCN(CCNC(=O)c2c(O)c3ncc(Cc4ccc(F)cc4)c4c3n(c2=O)CCO4)CC1` [compound 16], the concentration giving a half-maximal response (EC50) was 12 nM.

Turning to `O=C(NCCN1CCNCC1)c1c(O)c2ncc(Cc3ccc(F)cc3)c3c2n(c1=O)CCO3` [compound 18], the EC50 is 20 nM.

For the compound `O=C(NCCO)c1c(O)c2ncc(Cc3ccc(F)cc3)c3c2n(c1=O)CCCO3` [compound 24], the EC50 was found to be 4.6 nM.

For `O=C(NCCO)c1c(O)c2ncc(Cc3ccc(F)cc3)c3c2n(c1=O)CCN3` [compound 30], the EC50 worked out at 7 nM.

As for `O=C(NCCOCc1ccccc1)c1c(O)c2ncc(Cc3ccc(F)cc3)c3c2n(c1=O)CCN3` [compound 32], the EC50 came out at 6 nM.

Take `COCCNC(=O)c1c(O)c2ncc(Cc3ccc(F)cc3)c3c2n(c1=O)CCN3` [compound 33]: the EC50 came to 3.3 nM.

Consider `O=C(NCCCN1CCCC1=O)c1c(O)c2ncc(Cc3ccc(F)cc3)c3c2n(c1=O)CCN3` [compound 34], for which the EC50 was 9.5 nM.

As for `O=C(NCCN1CCOCC1)c1c(O)c2ncc(Cc3ccc(F)cc3)c3c2n(c1=O)CCN3` [compound 35], the EC50 worked out at 5.5 nM.

As for `O=C(NC1CC1)c1c(O)c2ncc(Cc3ccc(F)cc3)c3c2n(c1=O)CCN3` [compound 36], the EC50 worked out at 3.5 nM.

For the compound `CNC(=O)c1c(O)c2ncc(Cc3ccc(F)cc3)c3c2n(c1=O)CCN3` [compound 37], the EC50 is 5.8 nM.

In the case of `CCOCCNC(=O)c1c(O)c2ncc(Cc3ccc(F)cc3)c3c2n(c1=O)CCN3` [compound 38], the EC50 was 8.5 nM.

With `CC(C)(O)CNC(=O)c1c(O)c2ncc(Cc3ccc(F)cc3)c3c2n(c1=O)CCN3` [compound 39], the EC50 worked out at 9.5 nM.

On to `CC(=O)N1CCn2c(=O)c(C(=O)NCCO)c(O)c3ncc(Cc4ccc(F)cc4)c1c32` [compound 43], for which the EC50 was 982 nM.

With `CN1CCn2c(=O)c(C(=O)NCCO)c(O)c3ncc(Cc4ccc(F)cc4)c1c32` [compound 45], the EC50 stood at 2 nM.

For the compound `O=C(NC1CC1)c1c(O)c2ncc(Cc3ccc(F)cc3)c3c2n(c1=O)CCCN3` [compound 50], the EC50 is 17 nM.

`C[C@@H](CO)NC(=O)c1c(O)c2ncc(Cc3ccc(F)cc3)c3c2n(c1=O)CCCN3` [compound 51]: the half-maximal effective concentration (EC50) stood at 4 nM.

Take `COCCNC(=O)c1c(O)c2ncc(Cc3ccc(F)cc3)c3c2n(c1=O)CCCN3` [compound 52]: the EC50 is 8 nM.

For the compound `CC1(C)Cn2c(=O)c(C(=O)NCCO)c(O)c3ncc(Cc4ccc(F)cc4)c1c32` [compound 59], the EC50 came out at 85 nM.

In the case of `CC1(C)Cn2c(=O)c(C(=O)NCCN3CCOCC3)c(O)c3ncc(Cc4ccc(F)cc4)c1c32` [compound 60], the EC50 is 400 nM.

`O=C(NCCO)c1c(O)c2ncc(Cc3ccc(F)cc3)c3c2n(c1=O)CCC3` [compound 65]: the EC50 was found to be 1.5 nM.

For the compound `Cc1cn2c(=O)c(C(=O)NCCO)c(O)c3ncc(Cc4ccc(F)cc4)c1c32` [compound 72], the EC50 worked out at 20 nM.

As to `O=C(NCCO)c1c(O)c2ncc(Cc3ccc(F)cc3)c3c2n(c1=O)CC(F)(F)CN3` [compound 79], the EC50 was determined as 7 nM.

The experiment is the same for the next values; noted with them: Human immunodeficiency virus 1, IIIB, MT2, 120 h, read-out: EC50 in MT-2 cells (nM).
For the compound `CNC(=O)c1c(O)c2ncc(Cc3ccc(F)cc3)c3c2n(c1=O)C[C@@H](CN(C)S(=O)(=O)N(C)C)O3` [Example 210], the EC50 amounted to 5 nM.

The values are drawn from patent publication US7998950B2, “Antiviral compounds” (Gilead Sciences, Inc., priority 2008, dated 2011).
